Assay results reported in patent US20040171954A1, “Methods for determining whether to provide an inhibitor of sympathetic nervous system activity to a human being suffering from an autoimmune disease or fibryomyalgia” (CNS-Rheumatology, Inc., priority 2003, published 2004).
Where two headings read alike, the source gives them in different places.

Key:
[1] = system: patient one suffering from Ankylosing Spondylitis; assay: Clinical course of a patient with ankylosing spondylitis (Example 7); format: in vivo, human; conditions: for control of the disease by prior therapy: before pramipexole
[2] = system: patient suffering from severe, previously untreatable, psoriatic arthropathy; assay: Clinical course of a patient with severe psoriatic arthropathy (Example 3); format: in vivo, human; conditions: one patient
Source text: The following heart rate variability measurements were made in the patient using system 10: vagus, 0.16; sympathetic, 54; tension, 220; total power, 283.

[3] = system: sympathetic nervous system activity in the heart; conditions: for sympathetic / tension / total power / vagus: one patient on pramipexole plus steroid therapy; for sympathetic (heart rate variability) / tension (heart rate variability) / total power (heart rate variability) / vagus (heart rate variability): one patient
Source text: This system is commercially available as The OmegaWave Sport Technology System, which is sold by OmegaWave Sport, Inc., 2732 Sunnyview Lane, Eugene, Oreg. 97405, USA. […] FIG. 4 illustrates one embodiment of components of the system and various electrode/sensor placements on the human body. System 10 is adapted to perform the following tests on a human body: Heart Rate Variability; Differential electrocardiogram (ECG); Omega Wave; Jump; and Stimulus Response. In the practice of the present invention, system 10 is used to perform the Heart Rate Variability test.
Referring to FIG. 7, a diagram that illustrates the steps of conducting a heart rate variability test in accordance with the present invention is shown. In step 110, a person receiving a test (PRT) positions him or herself for sensor attachment. In step 112, the sensors are attached. In step 114, a user selects the desired heart rate variability test from CD 50. In step 115, ID 40 is initialized for appropriate data sensing and data propagation by CD 50. In step 116, the PRT is instructed to attain or maintain a state of rest. In step 117, the machine executable steps of the selected test(s) is/are carried out by CD 50. […] A description of machine executable steps of the heart rate variability test selected in step 114 of FIG. 7 is now presented. Processing cardiac signals as discussed below permits quantitative and qualitative analysis of the functional state of cardiac activity.
In this representative heart rate variability test, four electrode sensors are preferably utilized and they are preferably placed one each on the wrists and ankles. One sensor electrode is a ground and the other three collect standard ECG data or the like. Alternative sensor placement may be utilized. The heart rate variability test is based on the registration of cardiac contractions of standard electrocardiogram (ECG) readings over the course of a fixed span of time. The test records the change of period length (in seconds) between each cardiac contraction which is the time between ECG spikes, which are designated with the letter R.
After initialization of ID 40, cardiac muscle electrical activity is recorded for a fixed time period, e.g., 128 seconds (step 152). A fixed number of consecutive heart beat intervals (RR intervals), e.g., 100, is selected and analyzed (step 154). The intervals are processed in this exemplary method using a fast Fourier transformation to achieve frequency spectrum analysis (step 156) and the density of interval frequencies is plotted in a frequency spectrum-gram (step 158). Frequency spectrum analysis is known in the art as described supra. The following frequency ranges are preferably plotted: high frequency=0.15 to 0.4 Hz; low frequency=0.04 to 0.15 Hz; and very low frequency=0.004 to 0.04 Hz.
In step 172, various indices for cardiovascular system performance are calculated based on frequency spectrum and other data and these include: Vagus (parasympathetic) Regulation (VR); Humoral Regulation (HR); Sympathetic Regulation (SR); Tension (Stress) Index; Share of aperiodic influences; Standard deviation; and Frequency of Cardiac Contractions (FCC). Calculation of these or related indices is known in the art. (See, e.g., Baevskiy, R. M., et al., Mathematical Analysis of Changes in Heart Rate Rhythm Under Stress, Moscow Science, 1984). These indices may be interpreted to generate textual conclusions about the functional state of cardiac activity.
The OmegaWave Sport Technology System, described herein and in published United States patent application serial number U.S. 2002/0045835 A1, provides three values that can be used singly, or in combination, to determine whether sympathetic nervous system activity predominates over parasympathetic nervous system activity in the heart: activity of the vagus (parasympathetic) regulation mechanisms; activity of the sympathetic regulation mechanisms; and Tension index.

[4] = system: patient two suffering from autoimmune hemolytic anemia with leukopenia; conditions: one patient
Source text: Patient two suffered from autoimmune hemolytic anemia. The patient had leukopenia (reduced white blood cell (WBC) count; 2,300 WBC). Steroids were recommended, but the patient refused. The patient's heart rate variability was monitored using system 10: vagus, 0.17; sympathetic, 52; tension, 199; total power, 201. […] Therefore, pramipexole was prescribed for administration at night to address sympathetic overactivity. The patient's symptoms improved, and their WBC count began to increase (2400). These changes correlated with a reduction in excessive sympathetic nervous system activity: vagus, 0.22; sympathetic, 45; tension, 147; total power, 294.
The patient discontinued pramipexole against medical advice. WBC decreased to 2100 as excessive sympathetic nervous system activity increased: vagus, 0.20; sympathetic, 70; tension, 236; total power, 280.

[5] = after the patient discontinued pramipexole
[6] = pramipexole 2.0 mg per day at bedtime, with etanercept
[7] = pramipexole increased over 4 weeks to 4.5 mg per day at bedtime

Molecule: CN(Cc1cnc2nc(N)nc(N)c2n1)c1ccc(C(=O)N[C@@H](CCC(=O)O)C(=O)O)cc1 [methotrexate]
- control of the disease by prior therapy [1]: failed to control

Molecule: C[C@]12C=CC(=O)C=C1CC[C@@H]1[C@@H]2C(=O)C[C@@]2(C)[C@H]1CC[C@]2(O)C(=O)CO [prednisone]
- adverse outcome of excessive prednisone ([1]; prednisone 40 mg per day): avascular necrosis of both hips and hip replacement

Molecule: etanercept
- response of chronic joint flares and synovial thickening to treatment ([2]; fifteen years, before pramipexole): resistant
- effectiveness of etanercept after pramipexole was added ([2]; over six weeks, pramipexole 2.0 mg per day at bedtime): became more effective
- control of the disease by prior therapy [1]: failed to control

Molecule: CCCN[C@H]1CCc2nc(N)sc2C1 [pramipexole]
- sympathetic ([3]; Dec. 11, 2001): 61
- tension ([3]; Dec. 11, 2001): 374
- total power ([3]; Dec. 11, 2001): 102
- vagus ([3]; Dec. 11, 2001): .10
- sympathetic ([3]; Feb. 5, 2002): 87
- tension ([3]; Feb. 5, 2002): 569
- total power ([3]; Feb. 5, 2002): 128
- vagus ([3]; Feb. 5, 2002): .09
- sympathetic ([3]; Nov. 14, 2001): 93
- tension ([3]; Nov. 14, 2001): 1278
- total power ([3]; Nov. 14, 2001): 24
- vagus ([3]; Nov. 14, 2001): .05
- sympathetic ([3]; Oct. 10, 2001): 93
- tension ([3]; Oct. 10, 2001): 1444
- total power ([3]; Oct. 10, 2001): 29
- vagus ([3]; Oct. 10, 2001): .05
- sympathetic (heart rate variability) [3, 5]: 70
- tension (heart rate variability) [3, 5]: 236
- total power (heart rate variability) [3, 5]: 280
- vagus (heart rate variability) [3, 5]: 0.20
- sympathetic (heart rate variability) ([3]; on pramipexole at night): 45
- tension (heart rate variability) ([3]; on pramipexole at night): 147
- total power (heart rate variability) ([3]; on pramipexole at night): 294
- vagus (heart rate variability) ([3]; on pramipexole at night): 0.22
- sympathetic (heart rate variability) [3, 6]: 54
- tension (heart rate variability) [3, 6]: 220
- total power (heart rate variability) [3, 6]: 283
- vagus (heart rate variability) [3, 6]: 0.16
- sympathetic (heart rate variability) [3, 7]: 43
- total power (heart rate variability) [3, 7]: 319
- vagus (heart rate variability) [3, 7]: 0.19
- tension (heart rate variability) ([3]; pramipexole increased over 4 weeks to 4.5 mg per day at bedtime, now normal): 145
- WBC [4, 5]: 2100
- WBC count ([4]; on pramipexole at night, 2,300 before treatment): 2400
